Test results from US20100099703A1, “PHENYLAMINO-SUBSTITUTED PIPERIDINE COMPOUNDS, THEIR PREPARATION AND USE AS MEDICAMENTS” (priority 2006, published 2010).

Target: T1, rat Y5 receptor (Rattus norvegicus, UniProt Q63634)
T1 construct: expressed in transfected cells; host or cells: C6 cells (membrane preparation)
T1 sequence (Q63634 1-445): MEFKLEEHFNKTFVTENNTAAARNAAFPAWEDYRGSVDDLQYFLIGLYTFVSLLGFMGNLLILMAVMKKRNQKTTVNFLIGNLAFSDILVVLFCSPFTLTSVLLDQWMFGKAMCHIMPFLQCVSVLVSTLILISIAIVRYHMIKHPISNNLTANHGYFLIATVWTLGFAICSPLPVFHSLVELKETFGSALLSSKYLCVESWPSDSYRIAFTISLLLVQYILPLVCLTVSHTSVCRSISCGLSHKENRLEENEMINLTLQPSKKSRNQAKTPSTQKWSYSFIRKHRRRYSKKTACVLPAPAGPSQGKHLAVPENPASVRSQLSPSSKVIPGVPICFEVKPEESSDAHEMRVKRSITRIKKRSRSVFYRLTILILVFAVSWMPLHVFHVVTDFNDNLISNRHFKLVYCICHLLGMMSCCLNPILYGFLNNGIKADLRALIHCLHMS
Assay: Neuropeptide Y5 receptor binding ([125I]-PYY displacement, membranes of transfected C6 cells)
Conditions: radioligand [125I]-PYY 100 pM, C6 cells transfected with rat Y5 receptor; for inhibition at 1 µM: compound at 10^−6 M
Method: Neuropeptide Y5 Receptor Binding Studies:
The methods used for membrane preparation and binding are similar to those described by Y. Hu, B. T. Bloomquist et al. in Y. Hu, B. T. Bloomquist et al., The Journal of Biological Chemistry, 1996, 271, 26315-26319 with modifications. Said literature description is herewith incorporated by reference and forms part of the disclosure. Cells C6 were transfected with the rat Y5 receptor. The cells were grown under standard culture conditions in 150 cm^2 dishes and they were harvested using a rubber scraper and 10 ml PBS. The cells from five dishes were collected and centrifuged 2.500 g for 5 min (4° C.). The pellet was washed by resuspending in 3 ml buffer (Tris-HCl 10 mM, pH 7.4), homogenized using a Potter S homogenizer, 10 strokes at 600 rpm and centrifuged 48.000 g for 20 min (4° C.). The pellet was resuspended in 8 ml membrane buffer (Tris-HCl 25 mM, NaCl 120 mM, KCl 5 mM, KH2PO4 1.2 mM, CaCl2 2.5 mM, MgSO4 1.2 mM, BSA 0.15 mg/ml, Bacitracine 0.5 mg/ml, pH 7.4) and rehomogenized using the Potter S, 10 strokes at 600 rpm. The protein concentration in the incubation was 40 μg/ml. The radioligand was [^125I]-PYY (100 pM) in a total incubation volume of 200 μl. Following incubation at 25° C. for 2 h, the reaction was stopped by addition of 5 ml ice-cold buffer (Tris-HCl 25 mM, NaCl 120 mM, KCl 5 mM, KH2PO4 1.2 mM, CaCl2 2.5 mM, MgSO4 1.2 mM, pH 7.4) and rapid filtration in a Harvester Brandell Cell using filters (Schleicher & Schuell GF 3362) pretreated for two hours with 0.5% polyethyleneimine. Filters were washed one time with 5 ml ice-cold buffer. The filters were placed into plastic scintilation vials and 5 ml scintilation cocktail Ecoscint H were added. The quantity of radioactivity present was determined in a Wallac Winspectral 1414 counter. Non specific binding was determined in the presence of 1 μM de pNPY. All binding assays were done in triplicate.

Row | SMILES | inhibition at 1 µM [%] | IC50 [nM]
1 | O=C(CN1CCC(Nc2ccccc2O)CC1)Nc1cnc2ccccc2c1 [Example 1, 2-[4-(2-Hydroxy-phenylamino)-piperidin-1-yl]-N-quinolin-3-yl-acetamide] | 5.6 | 
2 | O=C(CN1CCC(Nc2ccccc2O)CC1)Nc1ccc(C(=O)c2ccccc2)cc1 [Example 2, N-(4-Benzoyl-phenyl)-2-[4-(2-hydroxy-phenylamino)-piperidin-1-yl]-acetamide] | 62.5 | 
3 | CCn1c2ccccc2c2cc(NC(=O)CN3CCC(Nc4ccccc4O)CC3)ccc21 [Example 3, N-(9-Ethyl-9H-carbazol-3-yl)-2-[4-(2-hydroxy-phenylamino)-piperidin-1-yl]-acetamide] | 97.8 | 66.1
4 | O=C(CN1CCC(Nc2ccccc2O)CC1)Nc1ccc(C2CCCCC2)cc1 [Example 4, N-(4-Cyclohexyl-phenyl)-2-[4-(2-hydroxy-phenylamino)-piperidin-1-yl]-acetamide] | 35.3 | 
5 | O=C(CN1CCC(Nc2ccccc2O)CC1)Nc1ccc2ncccc2c1 [Example 5, 2-[4-(2-Hydroxy-phenylamino)-piperidin-1-yl]-N-quinolin-6-yl-acetamide] | 22.7 | 
6 | O=C(CN1CCC(Nc2ccccc2O)CC1)Nc1ccc2c(c1)-c1ccccc1C2=O [Example 6, 2-[4-(2-Hydroxy-phenylamino)-piperidin-1-yl]-N-(9-oxo-9H-fluoren-3-yl)-acetamide] | 95 | 57.5
7 | CC(=O)c1ccc(NC(=O)CN2CCC(Nc3ccccc3O)CC2)cc1 [Example 7, N-(4-Acetyl-phenyl)-2-[4-(2-hydroxy-phenylamino)-piperidin-1-yl]-acetamide] | 14 | 
8 | O=C(CN1CCC(Nc2ccccc2O)CC1)Nc1ccc2c(c1)CCCC2=O [Example 9, 2-[4-(2-Hydroxy-phenylamino)-piperidin-1-yl]-N-(5-oxo-5,6,7,8-tetrahydro-naphthalen-2-yl)-acetamide] | 44.7 | 
9 | CCn1c2ccccc2c2cc(NC(=O)CN3CCC(Nc4cccc(O)c4)CC3)ccc21 [Example 10, N-(9-Ethyl-9H-carbazol-3-yl)-2-[4-(3-hydroxy-phenylamino)-piperidin-1-yl]-acetamide] | 105 | 34.6
10 | O=C(CN1CCC(Nc2cccc(O)c2)CC1)Nc1ccc2c(c1)-c1ccccc1C2=O [Example 11, 2-[4-(3-Hydroxy-phenylamino)-piperidin-1-yl]-N-(9-oxo-9H-fluoren-3-yl)-acetamide] | 76.9 | 35.6
11 | CCN(CCO)c1ccc(NC(=O)CN2CCC(Nc3cccc(O)c3)CC2)cc1 [Example 12, N-{4-[Ethyl-(2-hydroxy-ethyl)-amino]-phenyl}-2-[4-(3-hydroxy-phenylamino)-piperidin-1-yl]-acetamide] | 51.2 | 
12 | O=C(CN1CCC(Nc2cccc(O)c2)CC1)Nc1ccc2ncccc2c1 [Example 13, 2-[4-(3-Hydroxy-phenylamino)-piperidin-1-yl]-N-quinolin-6-yl-acetamide] | 27.8 | 

Continued, values first:

Row | inhibition at 1 µM [%] | IC50 [nM] | SMILES
13 | 74.6 |  | CCn1c2ccccc2c2cc(NC(=O)CN3CCC(Nc4ccc(O)cc4)CC3)ccc21 [Example 15, N-(9-Ethyl-9H-carbazol-3-yl)-2-[4-(4-hydroxy-phenylamino)-piperidin-1-yl]-acetamide]
14 | 101 |  | O=C(CN1CCC(Nc2ccc(O)cc2)CC1)Nc1ccc2c(c1)-c1ccccc1C2=O [Example 16, 2-[4-(4-Hydroxy-phenylamino)-piperidin-1-yl]-N-(9-oxo-9H-fluoren-3-yl)-acetamide]
15 | 101 | 46.9 | CCn1c2ccccc2c2cc(NC(=O)CN3CCC(Nc4ccccc4OC)CC3)ccc21 [Example 17, N-(9-Ethyl-9H-carbazol-3-yl)-2-[4-(2-methoxy-phenylamino)-piperidin-1-yl]-acetamide]
16 | 96.1 |  | COc1ccccc1NC1CCN(CC(=O)Nc2ccc3c(c2)-c2ccccc2C3=O)CC1 [Example 18, 2-[4-(2-Methoxy-phenylamino)-piperidin-1-yl]-N-(9-oxo-9H-fluoren-3-yl)-acetamide]
17 | 19.6 |  | COc1ccccc1NC1CCN(CC(=O)Nc2cnc3ccccc3c2)CC1 [Example 21, 2-[4-(2-Methoxy-phenylamino)-piperidin-1-yl]-N-quinolin-3-yl-acetamide]
18 | 55.7 |  | COc1ccccc1NC1CCN(CC(=O)Nc2ccc(C(=O)c3ccccc3)cc2)CC1 [Example 22, N-(4-Benzoyl-phenyl)-2-[4-(2-methoxy-phenylamino)-piperidin-1-yl]-acetamide]
19 | 96.9 |  | CCn1c2ccccc2c2cc(NC(=O)CN3CCC(Nc4cccc(OC)c4)CC3)ccc21 [Example 23, N-(9-Ethyl-9H-carbazol-3-yl)-2-[4-(3-methoxy-phenylamino)-piperidin-1-yl]-acetamide]
20 | 97.5 |  | COc1cccc(NC2CCN(CC(=O)Nc3ccc4c(c3)-c3ccccc3C4=O)CC2)c1 [Example 24, 2-[4-(3-Methoxy-phenylamino)-piperidin-1-yl]-N-(9-oxo-9H-fluoren-3-yl)-acetamide]
21 | 51.6 |  | CCN(CCO)c1ccc(NC(=O)CN2CCC(Nc3cccc(OC)c3)CC2)cc1 [Example 25, N-{4-[Ethyl-(2-hydroxy-ethyl)-amino]-phenyl}-2-[4-(3-methoxy-phenylamino)-piperidin-1-yl]-acetamide]
22 | 37 |  | COc1cccc(NC2CCN(CC(=O)Nc3ccc(C(=O)c4ccccc4)cc3)CC2)c1 [Example 26, N-(4-Benzoyl-phenyl)-2-[4-(3-methoxy-phenylamino)-piperidin-1-yl]-acetamide]
23 | 91.1 |  | CCn1c2ccccc2c2cc(NC(=O)CN3CCC(Nc4ccc(OC)cc4)CC3)ccc21 [Example 27, N-(9-Ethyl-9H-carbazol-3-yl)-2-[4-(4-methoxy-phenylamino)-piperidin-1-yl]-acetamide]
24 | 97.3 |  | COc1ccc(NC2CCN(CC(=O)Nc3ccc4c(c3)-c3ccccc3C4=O)CC2)cc1 [Example 28, 2-[4-(4-Methoxy-phenylamino)-piperidin-1-yl]-N-(9-oxo-9H-fluoren-3-yl)-acetamide]
25 | 69 |  | CCN(CCO)c1ccc(NC(=O)CN2CCC(Nc3ccc(OC)cc3)CC2)cc1 [Example 29, N-{4-[Ethyl-(2-hydroxy-ethyl)-amino]-phenyl}-2-[4-(4-methoxy-phenylamino)-piperidin-1-yl]-acetamide]
26 | 80.7 | 23.7 | CCn1c2ccccc2c2cc(NC(=O)CN3CCC(Nc4ccccc4)CC3)ccc21 [Example 32, N-(9-Ethyl-9H-carbazol-3-yl)-2-(4-phenylamino-piperidin-1-yl)-acetamide]
27 | 108 | 102 | O=C(CN1CCC(Nc2ccccc2)CC1)Nc1ccc2c(c1)-c1ccccc1C2=O [Example 33, N-(9-Oxo-9H-fluoren-3-yl)-2-(4-phenylamino-piperidin-1-yl)-acetamide]
28 | 72.6 |  | CCN(CCO)c1ccc(NC(=O)CN2CCC(Nc3ccccc3)CC2)cc1 [Example 34, N-{4-[Ethyl-(2-hydroxy-ethyl)-amino]-phenyl}-2-(4-phenylamino-piperidin-1-yl)-acetamide]
29 | 67.1 |  | O=C(CN1CCC(Nc2ccccc2)CC1)Nc1ccc2c(c1)CCCC2=O [Example 35, N-(5-Oxo-5,6,7,8-tetrahydro-naphthalen-2-yl)-2-(4-phenylamino-piperidin-1-yl)-acetamide]
30 | 45.1 |  | O=C(CN1CCC(N(CC(=O)Nc2ccc3c(c2)-c2ccccc2C3=O)c2ccc(O)cc2)CC1)Nc1ccc2c(c1)-c1ccccc1C2=O [Example 38, 2-(4-{(4-Hydroxy-phenyl)-[(9-oxo-9H-fluoren-3-ylcarbamoyl)-methyl]-amino}-piperidin-1-yl)-N-(9-oxo-9H-fluoren-3-yl)-acetamide]
